Measurements published in patent publication US7973051B2 (Hoffman-La Roche Inc., priority 2007, dated 2011).

What follows are compounds tested against T1, human liver FBPase (Homo sapiens, UniProt P09467) (assay: FBPase assay: inorganic phosphate release (malachite green)). Conditions: recombinant human liver FBPase, 50 μM fructose-1,6-bisphosphate, read-out at 620 nm.
T1 construct: made in house; host or cells: E. coli
T1 sequence (P09467 2-338 limits assumed): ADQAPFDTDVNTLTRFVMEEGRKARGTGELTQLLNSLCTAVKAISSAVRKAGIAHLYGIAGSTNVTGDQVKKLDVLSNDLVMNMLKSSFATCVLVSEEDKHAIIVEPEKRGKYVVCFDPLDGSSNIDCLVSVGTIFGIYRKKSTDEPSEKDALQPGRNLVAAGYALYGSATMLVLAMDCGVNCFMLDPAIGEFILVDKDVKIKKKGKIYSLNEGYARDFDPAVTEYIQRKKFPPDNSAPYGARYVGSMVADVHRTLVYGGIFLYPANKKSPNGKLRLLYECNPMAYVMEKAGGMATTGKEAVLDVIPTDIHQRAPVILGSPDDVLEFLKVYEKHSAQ
Format: biochemical
Description: The following tests were carried out for evaluating the inhibitory activity of the compounds of the present invention against human liver FBPase (Swissprot Data base reference P09467, entry F16P_HUMAN).
Human liver FBPase cDNA (NM_000507) was purchased from Origene Technologies, Inc, subcloned in a vector for expression in E. Coli., and sequenced. Recombinant human liver FBPase (hlFBPase) was purified according to the following protocol that uses heat denaturation similarly to that described by El-Maghrabi et. al. [El-Maghrabi, M. R. et al. “Isolation of a human liver fructose-1,6-bisphosphatase cDNA and expression of the protein in Escherichia coli.” J Biol Chem 268:9466-9472, 1993.]. Briefly, E. coli cells, transiently expressing very high levels of soluble and active human liver FBPase, were suspended in 20 mM Tris-HCl pH 7.5, 1 mM EDTA, 1 mM DTT and were lysed by French press. The soluble extract was heat denatured at 65° C. for 5 min, and insoluble, denatured proteins were removed by centrifugation. The extract was then applied to a BioRad Macro-Prep High Q column equilibrated with 20 mM Tris-HCl pH 7.5, 1 mM EDTA, 1 mM DTT and the flow-through (containing FBPase activity) was collected and applied to a BioRad Macro-Prep HS column equilibrated with 20 mM HEPES pH 7.2, 1 mM DTT. A gradient of increasing NaCl concentration was then applied to the HS column and fractions were collected. Fractions containing active FBPase were pooled and further purified by size exclusion chromatography on a Sephacryl S200 column equilibrated in 20 mM Tris-HCl pH 7.5, 150 mM NaCl, 1 mM EDTA, 1 mM DTT. Purity of the enzyme preparation was >90% as assessed by Mass spectrometry.
Recombinant human liver FBPase (hlFBPase) activity was assayed through measuring the inorganic phosphate release that results from the hydrolysis of Fructose-1,6-bisphosphate by the enzyme. As described by Baykov A. A. et al. in [Baykov A. A et al., “Malachite Green procedure for orthophosphate determination and its use in alkaline phosphatase-based enzyme immunoassays”. Anal. Biochem., 171:266-270, 1988], inorganic phosphate can be readily quantified by spectrophotometry at 620 nm after complexation with ammonium molybdate/malachite green reagent. Enzymatic reaction was carried out with modifications of the procedure described by Wright S. W. et al. [Wright S. W. et al., “Anilinoquinazoline inhibitors of Fructose-1,6-bisphosphatase bind to a novel allosteric site: synthesis, in vitro characterization, and X-ray crystallography”. J. Med. Chem. 45:3865-3877, 2002]. Specifically, the reaction was carried out in 96 well plates in a final volume of 100 μl in the presence or in the absence of allosteric inhibitors. Reaction was started adding 25 ng of hlFBPase to the reaction mixture containing 50 mM HEPES-KOH buffer pH 7.2, 2 mM MgCl2, 2 mM EDTA, 1 mM DTT, 50 μM fructose-1,6-bisphosphate and 1% DMSO. After 50 minutes incubation at room temperature, the phosphate released was allowed to form a colored complex for 10 min by adding 150 μl of ammonium molybdate/malachite green reagent containing 0.03% malachite green, 0.2% ammonium molybdate, 0.05% Triton X-100 and 0.7 M H2SO4 in water that was stirred for 30 min at room temperature and filtered through 0.2 μm filter. Under these conditions, the assay was linear with time and able to detect FBPase inhibition after spectrophotometric read-out at 620 nm.

Compared with Cc1noc(C)c1-c1cccc2cc(S(=O)(=O)NC(=O)Nc3ncc(Br)s3)sc12 [Example 21, N-[(5-Bromo-1,3-thiazol-2-yl)carbamoyl]-7-(3,5-dimethylisoxazol-4-yl)-1-benzothiophene-2-sulfonamide], Cc1noc(C)c1-c1ccc2sc(S(=O)(=O)NC(=O)Nc3ncc(Br)s3)cc2c1 [Example 16, N-[(5-bromo-1,3-thiazol-2-yl)carbamoyl]-5-(3,5-dimethylisoxazol-4-yl)-1-benzothiophene-2-sulfonamide] is 1.9-fold higher in IC50: 447 nM for the first, 830 nM for the second.

Compared with CCc1nc(NC(=O)NS(=O)(=O)c2cc(C)c(CCOC)s2)sc1CC [Example 63, N-[(4,5-Diethyl-1,3-thiazol-2-yl)carbamoyl]-5-(2-methoxyethyl)-4-methylthiophene-2-sulfonamide], CCc1nc(NC(=O)NS(=O)(=O)c2cc(C)c(CCOC)s2)sc1Br [Example 58, N-[(5-Bromo-4-ethyl-1,3-thiazol-2-yl)carbamoyl]-5-(2-methoxyethyl)-4-methylthiophene-2-sulfonamide] is 2.5-fold lower in IC50: 393 nM for the first, 155 nM for the second. The second is the more potent here.

First: Cc1cc(S(=O)(=O)NC(=O)Nc2nc3c(C)cccc3s2)sc1CCO [Example 94, 5-(2-Hydroxyethyl)-4-methyl-N-[(4-methyl-1,3-benzothiazol-2-yl)carbamoyl]thiophene-2-sulfonamide]
Second: COc1cccc2sc(NC(=O)NS(=O)(=O)c3cc(C)c(CCO)s3)nc12 [Example 93, 5-(2-Hydroxyethyl)-N-[(4-methoxy-1,3-benzothiazol-2-yl)carbamoyl]-4-methylthiophene-2-sulfonamide]
The IC50 of the first is 2.2-fold lower: 64 nM for the first, 141 nM for the second. The first is the more potent here.

First: O=C(Nc1ncc(Br)s1)NS(=O)(=O)c1cc2c(s1)CCOC2 [Example 6, N-[(5-Bromo-1,3-thiazol-2-yl)carbamoyl]-6,7-dihydro-4H-thieno[3,2-c]pyran-2-sulfonamide]
Second: O=C(Nc1ncc(Br)s1)NS(=O)(=O)c1cc2cccc(Cl)c2s1 [Example 19, N-[(5-Bromo-1,3-thiazol-2-yl)carbamoyl]-7-chloro-1-benzothiophene-2-sulfonamide]
The IC50 of the first is 2-fold higher: 528 nM for the first, 268 nM for the second.

CCc1sc(NC(=O)NS(=O)(=O)c2cc(C)c(CCOC)s2)nc1-c1ccccc1 [Example 72, N-[(5-Ethyl-4-phenyl-1,3-thiazol-2-yl)carbamoyl]-5-(2-methoxyethyl)-4-methylthiophene-2-sulfonamide] and COCCc1sc(S(=O)(=O)NC(=O)Nc2nc(-c3ccccc3)c(C)s2)cc1C [Example 66, 5-(2-Methoxyethyl)-4-methyl-N-[(5-methyl-4-phenyl-1,3-thiazol-2-)carbamoyl]thiophene-2-sulfonamide] are within 1.5-fold of each other in IC50: 224 nM for the first, 160 nM for the second.

Compared with Cn1cc(S(=O)(=O)NC(=O)Nc2ncc(Br)s2)c2cccc(OCC(N)=O)c21 [Example 51, 2-{[3-({[(5-Bromo-1,3-thiazol-2-yl)carbamoyl]amino}sulfonyl)-1-methyl-1H-indol-7-yl]oxy}acetamide], Cn1cc(S(=O)(=O)NC(=O)Nc2ncc(Br)s2)c2cc(F)ccc21 [Example 26, N-[(5-Bromo-1,3-thiazol-2-yl)carbamoyl]-5-fluoro-1-methyl-1H-indole-3-sulfonamide] is 2.5-fold higher in IC50: 137 nM for the first, 341 nM for the second. The first is the more potent here.

Going from COc1cccc2c(S(=O)(=O)NC(=O)Nc3ncc(Br)s3)c[nH]c12 [Example 43, N-[(5-bromo-1,3-thiazol-2-yl)carbamoyl]-7-methoxy-1H-indole-3-sulfonamide] to COc1cccc2cc(S(=O)(=O)NC(=O)Nc3ncc(Br)s3)sc12 [Example 39, N-[(5-bromo-1,3-thiazol-2-yl)carbamoyl]-7-methoxy-1-benzothiophene-2-sulfonamide], the IC50 falls from 4060 nM to 105 nM (39-fold). The second is the more potent here.

COc1ccc2sc(S(=O)(=O)NC(=O)Nc3ncc(Br)s3)cc2c1 [Example 17, N-[(5-Bromo-1,3-thiazol-2-yl)carbamoyl]-5-methoxy-1-benzothiophene-2-sulfonamide] and COc1ccc2scc(S(=O)(=O)NC(=O)Nc3ncc(Br)s3)c2c1 [Example 7, N-[(5-Bromo-1,3-thiazol-2-yl)carbamoyl]-5-methoxy-1-benzothiophene-3-sulfonamide] are within 1.5-fold of each other in IC50: 167 nM for the first, 122 nM for the second.

Going from Cn1cc(S(=O)(=O)NC(=O)Nc2ncc(Br)s2)c2cc(OCc3ccccc3)ccc21 [Example 24, 5-(Benzyloxy)-N-[(5-bromo-1,3-thiazol-2-yl)carbamoyl]-1-methyl-1H-indole-3-sulfonamide] to Cn1cc(S(=O)(=O)NC(=O)Nc2ncc(Br)s2)c2ccc(OCc3ccccc3)cc21 [Example 28, 6-(Benzyloxy)-N-[(5-bromo-1,3-thiazol-2-yl)carbamoyl]-1-methyl-1H-indole-3-sulfonamide], the IC50 falls from 683 nM to 363 nM (1.9-fold).

CC(=O)OCCc1sc(S(=O)(=O)NC(=O)Nc2nc(-c3ccccc3)c(C)s2)cc1C [Example 73, 2-[3-Methyl-5-({[(5-methyl-4-phenyl-1,3-thiazol-2-yl)carbamoyl]amino}sulfonyl)-2-thienyl]ethyl acetate] and CSc1sc(NC(=O)NS(=O)(=O)c2cc(C)c(CCOC(C)=O)s2)nc1C [Example 85, 2-{3-Methyl-5-[({[4-methyl-5-(methylthio)-1,3-thiazol-2-yl]carbamoyl}amino)sulfonyl]-2-thienyl}ethyl acetate] are within 1.5-fold of each other in IC50: 128 nM for the first, 160 nM for the second.

Going from CCc1nc(NC(=O)NS(=O)(=O)c2cc(C)c(CCOC)s2)sc1SC [Example 82, N-{[4-Ethyl-5-(methylthio)-1,3-thiazol-2-yl]carbamoyl}-5-(2-methoxyethyl)-4-methylthiophene-2-sulfonamide] to CCc1nc(NC(=O)NS(=O)(=O)c2cc(C)c(CCO)s2)sc1SC [Example 84, N-{[4-Ethyl-5-(methylthio)-1,3-thiazol-2-yl]carbamoyl}-5-(2-hydroxyethyl)-4-methylthiophene-2-sulfonamide], the IC50 falls from 144 nM to 78 nM (1.8-fold). The second is the more potent here.

Compared with Cn1c(S(=O)(=O)NC(=O)Nc2ncc(Br)s2)cc2ccccc21 [Example 8, N-[(5-Bromo-1,3-thiazol-2-yl)carbamoyl]-1-methyl-1H-indole-2-sulfonamide], Cc1cccc2cc(S(=O)(=O)NC(=O)Nc3ncc(Br)s3)sc12 [Example 14, N-[(5-Bromo-1,3-thiazol-2-yl)carbamoyl]-7-methyl-1-benzothiophene-2-sulfonamide] is 6.8-fold lower in IC50: 1100 nM for the first, 161 nM for the second. The second is the more potent here.

Compared with Cc1cc(S(=O)(=O)NC(=O)Nc2nc(C)c(SC(F)(F)F)s2)sc1CCO [Example 98, 6-(2-Hydroxyethyl)-4-methyl-N-({4-methyl-5-[(trifluoromethyl)thio]-1,3-thiazol-2-yl}carbamoyl)thiophene-2-sulfonamide], CCc1sc(NC(=O)NS(=O)(=O)c2cc(C)c(CCO)s2)nc1C [Example 70, N-[(5-Ethyl-4-methyl-1,3-thiazol-2-yl)carbamoyl]-5-(2-hydroxyethyl)-4-methylthiophene-2-sulfonamide] is 2.4-fold higher in IC50: 177 nM for the first, 417 nM for the second. The first is the more potent here.

COCc1oc(S(=O)(=O)NC(=O)Nc2nc(C)c(Br)s2)cc1C [Example 35, N-[(5-Bromo-4-methyl-1,3-thiazol-2-yl)carbamoyl]-5-(methoxymethyl)-4-methylfuran-2-sulfonamide] and CCc1sc(NC(=O)NS(=O)(=O)c2cc(C)c(CCO)s2)nc1C(C)C [Example 79, N-[(5-Ethyl-4-isopropyl-1,3-thiazol-2-yl)carbamoyl]-5-(2-hydroxyethyl)-4-methylthiophene-2-sulfonamide] are within 1.5-fold of each other in IC50: 258 nM for the first, 188 nM for the second.
